Laboratory results from US20240368181A1, “QUINOXALINE DERIVATIVES AND USES THEREOF” (Black Diamond Therapeutics, Inc., priority 2021, published 2024).

Columns and labels:
Type in all cases: cell-based
[1] = test system: UM-UC-14 (FGFR3-S249C) cells; assay: Cell proliferation assay (CellTiterGlo), UM-UC-14 cells; settings: inhibition of cell growth, intracellular ATP (CellTiterGlo)
Excerpt: (§1) The following is a non-limiting example that describes a cell proliferation assay used to determine the biological activity of the compounds of the present disclosure. More specifically, the assay as used to assess the ability of the compounds to inhibit cell proliferation.
(§2) Briefly, SNU-16 (FGFR2-amplification) cells, were resuspended at 18,520c/ml mL in RPMI containing 10% Heat Inactivated FBS, 1% L-glutamine and dispensed in duplicate (463c/well) into 384 well plates. UM-UC-14 (FGFR3-S249C) cells were resuspended at 40.000c/ml mL in RPMI containing 10% Heat Inactivated FBS, 1% L-glutamine and dispensed in duplicate (1000c/well) into 384 well plates. DMS-114 (FGFR1 overexpression) cells and were resuspended at 40,000c/ml mL in RPMI containing 10% Heat Inactivated FBS, 1% L-glutamine and dispensed in duplicate (1000c/well) into 384 well plates. RT-112 (FGFR3-Tacc3 fusion) cells were resuspended at 40,000c/ml mL in RPMI containing 10% Heat Inactivated FBS, 1% L-glutamine and dispensed in duplicate (1000c/well) into 384 well plates. To determine the effect of the compounds of the present disclosure on cell proliferation, SNU-16, UM-UC-14, DMS-114 and RT112 cells were incubated for 72 hours in the presence of vehicle control (DMSO) or a compound of the present disclosure at varying concentrations. Inhibition of cell growth was subsequently determined by luminescent quantification (Envision by Perkin Elmer) of intracellular ATP content using CellTiterGlo (Promega), according to the protocol provided by the manufacturer. To determine the IC50 values, the vehicle-treated cells were normalized as viable cells and analyzed using the CDD Vault software (Collaborative Drug Discovery, Burlingame, CA).

[2] = test system: RT-112 (FGFR3-Tacc3 fusion) cells; assay: Cell proliferation assay (CellTiterGlo), RT-112 cells; settings: RT112 cells, inhibition of cell growth, intracellular ATP (CellTiterGlo)
Excerpt: as §1, §2

[3] = test system: SNU-16 (FGFR2-amplification) cells; assay: Cell proliferation assay (CellTiterGlo), SNU-16 cells; settings: Homo sapiens, SNU-16, 72 h, inhibition of cell growth, intracellular ATP (CellTiterGlo)
Excerpt: as §1, §2

[4] = test system: DMS-114 (FGFR1 overexpression) cells; assay: Cell proliferation assay (CellTiterGlo), DMS-114 cells; settings: 72 hours, inhibition of cell growth, intracellular ATP (CellTiterGlo)
Excerpt: as §1, §2

SMILES	IC50 [3]	IC50 ([1]; UMUC14, 72 h)	IC50 ([2]; Homo sapiens, RT-112, 72 h)	IC50 ([4]; Homo sapiens)	IC50 ([1]; 72 hours)	IC50 ([2]; 72 hours)	IC50 [4]
COC(=O)CS(=O)(=O)N1CCC(Cn2cc(-c3cnc4ccc(Oc5ccc6nc(C)[nH]c6c5)c(Cl)c4n3)cn2)CC1 [Compound 29]	≥ 400 nM	≥ 400 nM	100 to 400 nM	≥ 400 nM	–	–	–
Cc1nc2ccc(Oc3ccc4ncc(-c5cnn(CC6CCN(C)CC6)c5)nc4c3F)cc2[nH]1 [Compound 36]	100 to 400 nM	100 to 400 nM	100 to 400 nM	≥ 400 nM	–	–	–
Cc1nc2c(C#N)cc(Oc3ccc4ncc(-c5cnn(CC6CCN(C)CC6)c5)nc4c3Cl)cc2[nH]1 [Compound 41]	100 to 400 nM	100 to 400 nM	100 to 400 nM	≥ 400 nM	–	–	–
Cc1nc2ccc(Oc3ccc4ncc(-c5cnn(CC6CC6)c5)nc4c3Cl)cc2[nH]1 [Compound 44]	100 to 400 nM	100 to 400 nM	100 to 400 nM	≥ 400 nM	–	–	–
Cc1nc2ccc(Oc3ccc4ncc(-c5cnn(CC6CCN(C)CC6)c5)nc4c3C)cc2[nH]1 [Compound 45]	20 to 100 nM	20 to 100 nM	20 to 100 nM	100 to 400 nM	–	–	–
COc1cc(Oc2ccc3ncc(-c4cnn(CC5CCN(C)CC5)c4)nc3c2Cl)cc2[nH]c(C)nc12 [Compound 46]	100 to 400 nM	≥ 400 nM	100 to 400 nM	≥ 400 nM	–	–	–
Cc1nc2ccc(Oc3cc4nc(-c5cnn(CC6CCOCC6)c5)cnc4cc3Cl)cc2[nH]1 [Compound 48]	≥ 400 nM	≥ 400 nM	≥ 400 nM	≥ 400 nM	–	–	–
Cc1nc2ccc(Oc3cc4nc(-c5cnn(CC6CCN(C)CC6)c5)cnc4cc3F)cc2[nH]1 [Compound 49]	≥ 400 nM	≥ 400 nM	≥ 400 nM	≥ 400 nM	–	–	–
Cc1nc2ccc(Oc3cc4nc(-c5cnn(CC6CCN(C)CC6)c5)cnc4cc3C)cc2[nH]1 [Compound 50]	≥ 400 nM	≥ 400 nM	≥ 400 nM	≥ 400 nM	–	–	–
Cc1nc2ccc(Oc3ccc4ncc(-c5cn[nH]c5)nc4c3Cl)cc2[nH]1 [Compound 51]	≥ 400 nM	≥ 400 nM	100 to 400 nM	≥ 400 nM	–	–	–
Cc1nc2ccc(Oc3ccc4ncc(-c5c(C)nn(CC6CCN(C)CC6)c5C)nc4c3Cl)cc2[nH]1 [Compound 52]	100 to 400 nM	100 to 400 nM	100 to 400 nM	≥ 400 nM	–	–	–
Cc1nc2ccc(Oc3ccc4ncc(-c5cnn(CCC6CCN(C)CC6)c5)nc4c3)cc2[nH]1 [Compound 55]	100 to 400 nM	100 to 400 nM	100 to 400 nM	≥ 400 nM	–	–	–
Cc1nc2c(C#N)cc(Oc3ccc4ncc(-c5cnn(CC6CCOCC6)c5)nc4c3)cc2[nH]1 [Compound 60]	≥ 400 nM	≥ 400 nM	≥ 400 nM	≥ 400 nM	–	–	–
COc1cc(Oc2ccc3ncc(-c4cnn(CC5CCOCC5)c4)nc3c2)cc2[nH]c(C)nc12 [Compound 61]	≥ 400 nM	≥ 400 nM	≥ 400 nM	≥ 400 nM	–	–	–
Cc1nc2cc(Oc3ccc4ncc(-c5cnn(CC6CCOCC6)c5)nc4c3)ccc2[nH]1 [Compound 62]	20 to 100 nM	100 to 400 nM	20 to 100 nM	≥ 400 nM	–	–	–
Cc1cn2ccc(Oc3ccc4ncc(-c5cnn(CC6CCN(C)CC6)c5)nc4c3Cl)cc2n1 [Compound 63]	100 to 400 nM	≥ 400 nM	100 to 400 nM	≥ 400 nM	–	–	–
Cc1nc2ccc(Oc3ccc4ncc(-c5cc(CC6CCN(C)CC6)no5)nc4c3Cl)cc2[nH]1 [Compound 64]	100 to 400 nM	100 to 400 nM	100 to 400 nM	≥ 400 nM	–	–	–
Cc1ccc2ccc(Oc3ccc4ncc(-c5cnn(CC6CCN(C)CC6)c5)nc4c3Cl)cc2n1 [Compound 65]	≥ 400 nM	≥ 400 nM	≥ 400 nM	≥ 400 nM	–	–	–
Cc1nc2ccc(Oc3ccc4ncc(-c5cnn(C6CCC(F)(F)CC6)c5)nc4c3Cl)cc2[nH]1 [Compound 66]	100 to 400 nM	100 to 400 nM	100 to 400 nM	≥ 400 nM	–	–	–
Cc1nc2ccc(Oc3ccc4ncc(-c5cnn(CC6(O)CC6)c5)nc4c3Cl)cc2[nH]1 [Compound 67]	20 to 100 nM	20 to 100 nM	20 to 100 nM	≥ 400 nM	–	–	–
Cc1nc2ccc(Oc3ccc4ncc(-c5cnn(CC6CC(F)(F)C6)c5)nc4c3Cl)c(F)c2[nH]1 [Compound 68]	20 to 100 nM	20 to 100 nM	20 to 100 nM	≥ 400 nM	–	–	–

More lines, main results first:

IC50 [3]	SMILES	IC50 ([1]; UMUC14, 72 h)	IC50 ([2]; Homo sapiens, RT-112, 72 h)	IC50 ([4]; Homo sapiens)	IC50 ([1]; 72 hours)	IC50 ([2]; 72 hours)	IC50 [4]
< 20 nM	COCCN1CCC(Cn2cc(-c3cnc4ccc(Oc5ccc6nc(C)[nH]c6c5)c(Cl)c4n3)cn2)CC1 [Compound 30]	< 20 nM	< 20 nM	100 to 400 nM	–	–	–
20 to 100 nM	Cc1nc2ccc(Oc3ccc4ncc(-c5cnn(CC6CCN(C)CC6)c5C)nc4c3Cl)cc2[nH]1 [Compound 31]	20 to 100 nM	20 to 100 nM	100 to 400 nM	–	–	–
20 to 100 nM	Cc1nc2ccc(Oc3ccc4ncc(-c5cn(CC6CCN(C)CC6)nc5C)nc4c3Cl)cc2[nH]1 [Compound 32]	20 to 100 nM	20 to 100 nM	≥ 400 nM	–	–	–
20 to 100 nM	Cc1nc2ccc(Oc3ccc4ncc(-c5cnn(CC6CCN(S(C)(=O)=O)CC6)c5)nc4c3Cl)cc2n1S(C)(=O)=O [Compound 33]	100 to 400 nM	20 to 100 nM	≥ 400 nM	–	–	–
< 20 nM	Cc1nc2ccc(Oc3ccc4ncc(-c5cnn(CC6CCN(C7COC7)CC6)c5)nc4c3Cl)cc2[nH]1 [Compound 35]	20 to 100 nM	< 20 nM	≥ 400 nM	–	–	–
20 to 100 nM	Cc1nc2ccc(Oc3ccc4ncc(-c5cnn(CC6CCN(S(=O)(=O)CC(C)C)CC6)c5)nc4c3Cl)cc2[nH]1 [Compound 37]	20 to 100 nM	20 to 100 nM	100 to 400 nM	–	–	–
20 to 100 nM	C=CC(=O)N1CCC(Cn2cc(-c3cnc4ccc(Oc5ccc6nc(C)[nH]c6c5)c(Cl)c4n3)cn2)CC1 [Compound 38]	20 to 100 nM	< 20 nM	100 to 400 nM	–	–	–
20 to 100 nM	C=CC(=O)N1CCC(CCn2cc(-c3cnc4ccc(Oc5ccc6nc(C)[nH]c6c5)c(Cl)c4n3)cn2)CC1 [Compound 39]	20 to 100 nM	20 to 100 nM	100 to 400 nM	–	–	–
20 to 100 nM	Cc1nc2ccc(Oc3ccc4ncc(-c5cnn(CC6CCN(S(=O)(=O)C(C)C)CC6)c5)nc4c3Cl)cc2[nH]1 [Compound 40]	20 to 100 nM	20 to 100 nM	≥ 400 nM	–	–	–
20 to 100 nM	Cc1nc2ccc(Oc3ccc4ncc(-c5cnn(CC6CCN(S(=O)(=O)C7CC7)CC6)c5)nc4c3Cl)cc2[nH]1 [Compound 42]	20 to 100 nM	20 to 100 nM	≥ 400 nM	–	–	–
20 to 100 nM	Cc1nc2ccc(Oc3ccc4ncc(-c5cnn(CC6CCN(S(C)(=O)=O)CC6)c5)nc4c3Cl)cc2[nH]1 [Compound 43]	20 to 100 nM	20 to 100 nM	≥ 400 nM	–	–	–
< 20 nM	Cc1nc2ccc(Oc3ccc4ncc(-c5cnn(CC6CCOCC6)c5)nc4c3Cl)cc2[nH]1 [Compound 59]	–	–	–	< 20 nM	< 20 nM	100 to 400 nM
